Measurements: a melting point compilation (Tetko et al.; mined from patent text by program, amines drawn as free bases though some values may be those of a salt)

melting point [°C] | Compound
217 to 220 | O=C(NCc1ccccc1)c1cc2ccnc(Cl)c2[nH]1
67 to 69 | CCOC(=O)c1cc(C=O)ccc1O
141 | Nc1ccc(OCC(O)CO)c(O)c1 (configuration not stated)
52 to 54 | CCCc1cc(=O)oc2c3c(c4c(c12)OC(C)(C)C=C4)OC(C)C(C)C3O (single isomer, unassigned; (-))
> 250 | Cc1cc2c(c3ccc(=O)[nH]c13)OC(CNC(=O)CN(C)C)C2 (configuration not stated)
64 to 65 | O=S(=O)(c1ccccc1)n1cc(CCOC2OC(CO)CC(O)C2O)c2ccccc21 (configuration not stated)
133 to 135 | CC(=O)OCC1OC(n2cnc(C(N)=O)c2Br)C(OC(C)=O)C1OC(C)=O (configuration not stated)
118 | OC1(c2ccc(Cl)c(Cl)c2)CCN(CCCOc2ccc(Cl)c(Cl)c2)CC1
84 to 86 | O=C(O)COc1ccc(C(=O)NCC2CCN(c3ccncc3)CC2)cc1
126 to 128 | COP(=O)(NC1C(=O)N2C(C(=O)OCc3ccccc3)=C(C=CN(C)C)CSC12)OC (configuration not stated)
218 to 220 | Cn1nc(-c2ccc(S(C)(=O)=O)cc2)c2ccccc2c1=O
88 | ClCn1cc(Cl)c(-c2cc(Cl)cc(Cl)c2)n1
170 to 172 | CCOc1cc2nc(CN(C)C)nc(Nc3cccc(-c4csc(C)n4)c3)c2cc1OCC
192 to 194 | COC(=O)c1ccc2nc(CC(C)C)c(CNC(=O)OC(C)(C)C)c(-c3ccc(C)cc3)c2c1
239 | Cc1cc(O)cc(C)c1NC=O
152 to 153 | OC(CCc1ccccc1)c1cnc2sc3c(n12)CCCC3 (configuration not stated)
138 to 141 | CCc1cc2c(s1)SCC1CC(=O)N(c3ccc(Cl)cc3)N=C21 (configuration not stated)
215 to 216 | COc1cc2cc(-c3cc4cc(OC)c(OC)c(C(C)C)c4cc3C)c(C)cc2c(C(C)C)c1OC
82 to 83 | CS(=O)(=O)OCCCCc1ccc(OCc2coc(/C=C/c3ccccc3)n2)cc1
190 to 192 | C=CCNc1c(CO)cnc2cn[nH]c12
175 to 178 | N#Cc1cc(O)c(O)c([N+](=O)[O-])c1
188 | N=C(NO)c1ccnc(N)c1
116 to 117 | COc1cc(-c2ncnc(Cl)c2Cl)c(F)cc1Cl
139 to 141 | O=C(CN1CCN(C(=O)OCc2ccc(C(F)(F)F)cc2)CC1)N1CCC2(CC1)Cn1cc([N+](=O)[O-])nc1O2

melting point [°C] | Compound
217 to 218 | COC(=O)[C@@H](NC(=O)[C@H](CC(C)C)NC(=O)[C@@H](NC(=O)OCc1ccccc1)C(C)C)[C@@H](C)O
196 to 200 | N#Cc1c(C(F)(F)F)nn(-c2c(Cl)cc(C(F)(F)F)cc2Cl)c1N
141 to 145 | Cn1cc(C2=C(c3c4n(c5ccccc35)CC(NC(=O)OC(C)(C)C)CC4)C(=O)OC2=O)c2ccccc21 (configuration not stated)
187 | CCCc1nc(S(C)=O)c(C(=O)OCC)n1Cc1cc2c(cc1Cl)OCO2 (configuration not stated)
223 to 224 | CCOC(=O)Nc1ccc2nc(S(N)(=O)=O)sc2c1
128 to 130 | COC(=O)C(C)(C)OCc1cc2cc(C(F)(F)F)ccc2n1S(=O)(=O)c1ccc2c(c1)OCCO2
179 to 181 | CCOC(=O)c1cc2c(C)c(-c3ccc(Cl)cc3)c(=O)oc2nc1C(=O)OCC
127 to 129 | COc1ccc(C(=O)c2c(C)cc(NC(C)(C)C)nc2NC(C)(C)C)cc1
73.5 to 76 | Cc1c(C(F)(F)F)noc1OCC(=O)O
230 to 235 | Cn1ccc2cc(N3Cc4ccc(O)cc4C3=O)ccc21
137 to 140 | COc1cc2ccc(C(=O)CCl)cc2cc1OC
113 to 115 | COc1ccc2c(c1)C(O)CC21CCN(CCCC(=O)c2ccc(F)cc2)C1 (configuration not stated)
248 to 252 | Cc1cc(-n2c(C)nc3ccccc32)cc2c1NC(=O)CC2C (configuration not stated)
229 | CN1CCN(S(=O)(=O)c2cccc(NC(=O)c3cnn4c(C(F)F)cc(-c5ccc(Cl)c(Cl)c5)nc34)c2)CC1
237 to 238 | CC(=O)N1C(=O)C2(CC2)c2ccc(N3C(=O)C4=C(CCCC4)C3=O)cc21
53.5 to 54 | Clc1ccc(OCOCOc2ccc(Cl)cc2)cc1
134 to 138 | Cc1cccc(-c2nc(-c3ccc(S(C)(=O)=O)cc3)sc2-c2ccnc(C)c2)c1
142 to 143 | CC1NC(=Nc2ccccc2N2CCOCC2)NC1C (configuration not stated)
227 to 229 | COc1cc(-c2cnc3[nH]cc(C(=O)C(C)(C)CO)c3n2)cc(OC)c1OC
232 to 234 | CCC(Oc1ncn(-c2ccc(Cl)c(Cl)c2)n1)C(=O)O (configuration not stated)
138 to 142 | CC(C(=O)O)c1ccc(-c2ccc(F)cc2)c(O)c1 (configuration not stated)
101 to 102 | CCOC(=O)Cc1c(C)n(Cc2ccc(SC)cc2)c2ccc(OCc3nc4ccccc4s3)cc12
110 to 116 | O=S(=O)(C=CC(=Nc1ccccc1)Oc1ccccc1)c1ccccc1
108 to 110 | CCCCCCCCCCCCCCCc1cc2cc(C(=O)O)ccc2[nH]1

melting point [°C] | Compound
147 to 149 | CCOC(=O)C1CCc2cc(Cc3cnc(N)s3)ccc2C1 (configuration not stated)
146 to 148 | CC(C)n1nc(-c2c(-c3ccccc3)nn3ccc(OCC(=O)NC4CCC(O)CC4)cc23)ccc1=O (configuration not stated)
167 to 168 | O=c1c2ccccc2[nH]n1CSc1ccccc1
147 to 150 | Cc1cccc(C)c1CCC(CCc1c[nH]cn1)CCc1c(C)cccc1C
115 to 120 | C=CC(=O)OCCOc1ccc(-c2nc(-c3ccc(Cl)cc3)nc(-c3ccc(OCCOC(=O)C=C)cc3O)n2)c(O)c1
260 to 262 | CCN1CCN(CC(=O)NC2(c3ccc(Cl)cc3)C(=O)Nc3cc(C#N)cc(C(F)(F)F)c32)CC1 (configuration not stated)
145 to 146 | O=C(c1cc(C(F)(F)F)cc(C(F)(F)F)c1)N1CCN(CCCC2(c3ccc(F)cc3)OCCO2)C[C@H]1Cc1c[nH]c2ccccc12
138 to 142 | CCOCCOc1ccc(-c2ccc3c(c2)C=C(C(=O)OC)CCN3C=O)cc1
107 | O=c1c2ccccc2ccn1Cc1ccc(F)cc1
40 to 42 | COc1ccc(C(=O)CC(=O)OC(C)(C)C)c(O)c1
133 to 134 | CCCS(=O)(=O)Nc1c(C)c(C)c2c(c1C)C(c1ccc(C(C)C)cc1)CO2 (configuration not stated)
173 to 175 | Cc1ncccc1Oc1ccc(NC(=O)Nc2ccc3[nH]c4c(c3c2)CCN(C(=O)OC(C)(C)C)CC4)cn1
286 | N#Cc1c(N2CCN(C(=O)c3cccs3)CC2)c2cccnc2n(Cc2ccccc2F)c1=O
219 to 220 | O=C(O)C(=O)N1CCc2cc(S(=O)(=O)N3CCN(c4cccc(Cl)c4)CC3)ccc21
256 to 260 | C=Cn1cc(C(=O)O)c(=O)c2cc(F)c(N3CCNCC3)nc21
57 to 60 | NC(=O)N(O)CCn1ccc2ccccc21
199 to 200 | N#Cc1cnn2c1N(C(=O)CN1CCC(c3ccccc3)CC1)CC=C2c1cc(Cl)ccc1Cl
364 to 367 | Cn1c(O)nc2cc3c(cc21)C(C)(C)C(=O)N3
102 to 103 | Cc1cccc(-c2nccc(NN)n2)c1
> 300 | CCCCCCC(=Cc1ccc(-c2nnn[nH]2)cc1)C(OC)=C1SC(=S)NC1=O
46 to 47 | c1ccc(Cc2ncc(-c3ccncc3)s2)cc1
209 to 210 | CC(=O)N1CCN(NC(=O)c2ccc(F)cc2)CC1
145 to 146 | CC(=NNc1ccccc1[N+](=O)[O-])c1ccccn1
134 to 135 | CCOCc1cc2cc(Br)ccc2oc1=Nc1ccc(OC)cc1

melting point [°C] | Compound
127 to 129 | Cc1nc[nH]c1CSCCNC(=S)S
92 to 94 | COC(=O)CCCC#Cc1cc(Cl)ccc1NS(=O)(=O)c1cc(C)cc(C)c1
85 to 100 | CC(n1cncn1)C(O)(COc1ccc(F)cc1)C(C)(C)C (configuration not stated)
147 to 148 | CCc1ccc2c(=O)c(CO)cn(C)c2c1
128 to 131 | COc1ccc(CNc2nnc(N3CCC(CO)CC3)c3ccc(Cl)cc23)cc1Cl
181 to 183 | Cc1ccc(C(=O)n2c3c(c4ccccc42)C(C(=O)O)CCC3)cc1 (configuration not stated)
177 | CCOC(=O)c1nc(-c2ccc(F)cc2)[nH]c1N=NN(C)C
148 to 150 | COc1cc(C=O)c([N+](=O)[O-])cc1OCCCl
142 | O=C(Nc1ccc(N2CCSCC2)c(F)c1)OCc1ccccc1
231 to 232 | COc1ccc(CS(=O)(=O)c2cc3cc(Br)ccc3oc2=O)cc1
131 to 132 | COc1ccc2c(c1)C(C(=O)N(Cc1ccc(S(C)(=O)=O)cc1)c1ccc(C(C)C)cc1)CCC2 (configuration not stated)
113 to 114 | CCOC(=O)C=Cc1cc2cc(OC)ccc2nc1Cl
157 to 159 | COC(=O)C(Oc1cc(OCc2ccc3ncoc3c2)ccc1C#N)c1ccccc1Cl (racemic)
260 to 262 | Cc1nc(Nc2ccccc2)sc1-c1nc2ccccc2c(=O)n1-c1ccccc1
110 to 120 | Cc1cc(Nc2ccnc(Nc3ccc(S(=O)(=O)N(C)C4CCN(C)CC4)cc3)n2)ccc1F
183 to 184 | CC1(C)CC(=C(c2ccc(O)cc2)c2ccc(C#CCCO)cc2)CC(C)(C)C1
144 | CC(C)CN(C)S(=O)(=O)c1cccc(-c2cc(-c3nc(-c4ccc(C(F)(F)F)cc4)cc(C(F)(F)F)n3)ccn2)c1
209 to 213 | COc1cc(C(=O)OC(C)C)cc(OC)c1Cc1cnc(N)nc1N
217 to 219 | Fc1ccc(F)c(CN2CCNc3ncc(-c4ccc(N5CCOCC5)cc4)cc32)c1Cl
167 to 169 | CSc1ccc(Nc2cscc2C#N)c([N+](=O)[O-])c1
> 300 | C=CCNc1nc(C2C(=O)Nc3ccc(C#N)cc32)c2cn(C3CCCC3)nc2n1 (configuration not stated)
114 to 116 | CCC(Oc1c(Br)cccc1Br)C(=O)OC1CC(O)C=C2C=CC(C)C(CCC3CC(O)CC(=O)O3)C21 (mixture of isomers)

Compound | melting point [°C]
CNc1ccc(NC(=O)c2cc3cc(F)ccc3n2Cc2cccc(F)c2)cn1 | 225 to 227
CCC1CC2=CCCCC2C2CCC3(C)C(O)CCC3C12 (configuration not stated) | 155 to 157
CC(=O)c1ccc2c(c1)C(c1ccccc1F)=NC(C)(C)C(=O)N2 | 59
